From patent US20060069132A1, “Azolecarboxamide herbicides” (priority 2004, published 2006)

Assays:
corn = assay: Test B pre-/postemergence herbicide test; type: in vivo, Zea mays; settings: for Corn plant response rating (0 to 100 scale) / Plant response rating, Corn: 0 = no effect, 100 = complete control, preemergence; for Plant response rating, Corn / Corn plant response rating: visual rating; for Corn plant response rating: postemergence, scale 0 (no effect) to 100 (complete control)
Summary of the method: (§1)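 Flooded paddy rice and barnyardgrass were treated at the 2-leaf stage; upland plantings received compound either on sown seed or on 1- to 4-leaf seedlings. All were kept 13–15 days in a greenhouse and scored visually, 0–100, relative to untreated plants.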

barnyardgrass [1] = assay: Test B pre-/postemergence herbicide test; type: in vivo, Echinochloa crus-galli; settings: for Barnyardgrass plant response rating (0 to 100 scale) / Plant response rating, Barnyardgrass: 0 = no effect, 100 = complete control, preemergence; for Plant response rating, Barnyardgrass / Barnyardgrass plant response rating: visual rating; for Barnyardgrass plant response rating: postemergence, scale 0 (no effect) to 100 (complete control)
Summary of the method: (§2)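 Species tested were Echinochloa crus-galli, Ipomoea coccinea, Xanthium strumarium and Oryza sativa, treated both before emergence and at the 1- to 4-leaf stage; rice and barnyardgrass were also tested under flooding at 2 leaves. Greenhouse incubation lasted 13–15 days before visual 0–100 scoring.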

large crabgrass = assay: Test B pre-/postemergence herbicide test; type: in vivo, Digitaria sanguinalis; settings: for Crabgrass, Large plant response rating (0 to 100 scale) / Plant response rating, Crabgrass, Large: 0 = no effect, 100 = complete control, preemergence; for Plant response rating, Crabgrass, Large / Crabgrass, Large plant response rating: visual rating; for Crabgrass, Large plant response rating: postemergence, scale 0 (no effect) to 100 (complete control)
Summary of the method: as §1

blackgrass = assay: Test B postemergence herbicide test; type: in vivo, Alopecurus myosuroides; settings: postemergence, visual rating, scale 0 (no effect) to 100 (complete control)
Summary of the method: (§3)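 Plants grow to 1- to 4-leaf stage (2–18 cm) for postemergence spraying, or to 2-leaf stage for the paddy test. Formulated compound is applied. Greenhouse holding lasts 13–15 days. Response is scored visually relative to controls, 0 no effect to 100 complete control; a dash means no result.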

giant foxtail = assay: Test B pre-/postemergence herbicide test; type: in vivo, Setaria faberi; settings: for Foxtail, Giant plant response rating (0 to 100 scale) / Plant response rating, Foxtail, Giant: 0 = no effect, 100 = complete control, preemergence; for Plant response rating, Foxtail, Giant / Foxtail, Giant plant response rating: visual rating; for Foxtail, Giant plant response rating: postemergence, scale 0 (no effect) to 100 (complete control)
Summary of the method: as §1

rice [2] = assay: Test B flooded paddy test; type: in vivo, Oryza sativa; settings: 1000 g ai/ha, scale 0 to 100 (0 no effect, 100 complete control)
Summary of the method: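 After treating 2-leaf paddy plants or 2–18 cm postemergence plants (1 to 4 leaves) with formulated chemical, researchers kept them in a greenhouse for 13–15 days. Effects were judged visually versus controls: 0 indicates none, 100 total control.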

Surinam grass = assay: Test B pre-/postemergence herbicide test; type: in vivo, Urochloa decumbens; settings: for Surinam Grass plant response rating (0 to 100 scale) / Plant response rating, Surinam Grass: 0 = no effect, 100 = complete control, preemergence; for Plant response rating, Surinam Grass / Surinam Grass plant response rating: visual rating; for Surinam Grass plant response rating: postemergence, scale 0 (no effect) to 100 (complete control)
Summary of the method: as §1

barnyardgrass [3] = assay: Test B flooded paddy test; type: in vivo, Echinochloa crus-galli; settings: 1000 g ai/ha, scale 0 to 100 (0 no effect, 100 complete control)
Summary of the method: as §3

ducksalad = assay: Test B flooded paddy test; type: in vivo, Heteranthera limosa; settings: 1000 g ai/ha, scale 0 to 100 (0 no effect, 100 complete control)
Summary of the method: as §3

wheat = assay: Test B postemergence herbicide test; type: in vivo, Triticum aestivum; set-up: key to Wheat plant response rating: 0 = no effect, 100 = complete control; settings: postemergence, visual rating, scale 0 (no effect) to 100 (complete control)
Summary of the method: (§4)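 Visual ratings, 0 (no effect) to 100 (complete control), made versus controls after 13–15 d greenhouse. Paddy plants treated at 2-leaf stage; postemergence plants at 1- to 4-leaf stage, 2–18 cm tall.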

velvetleaf = assay: Test B pre-/postemergence herbicide test; type: in vivo, Abutilon theophrasti; settings: for Velvetleaf plant response rating (0 to 100 scale) / Plant response rating, Velvetleaf: 0 = no effect, 100 = complete control, preemergence; for Plant response rating, Velvetleaf / Velvetleaf plant response rating: visual rating; for Velvetleaf plant response rating: postemergence, scale 0 (no effect) to 100 (complete control)
Summary of the method: as §1

morningglory = assay: Test B pre-/postemergence herbicide test; type: in vivo, Ipomoea coccinea; settings: for Morningglory plant response rating (0 to 100 scale) / Plant response rating, Morningglory: 0 = no effect, 100 = complete control, preemergence; for Plant response rating, Morningglory / Morningglory plant response rating: visual rating; for Morningglory plant response rating: postemergence, scale 0 (no effect) to 100 (complete control)
Summary of the method: as §2

[4] = test system: small flower umbrella sedge; assay: Test B flooded paddy test; type: in vivo, Cyperus difformis; settings: 1000 g ai/ha, scale 0 to 100 (0 no effect, 100 complete control)
Summary of the method: as §3

lambsquarters = assay: Test B pre-/postemergence herbicide test; type: in vivo, Chenopodium album; settings: for Lambsquarters plant response rating (0 to 100 scale) / Plant response rating, Lambsquarters: 0 = no effect, 100 = complete control, preemergence; for Plant response rating, Lambsquarters / Lambsquarters plant response rating: visual rating; for Lambsquarters plant response rating: postemergence, scale 0 (no effect) to 100 (complete control)
Summary of the method: as §1

pigweed = assay: Test B pre-/postemergence herbicide test; type: in vivo, Amaranthus retroflexus; settings: for Pigweed plant response rating (0 to 100 scale) / Plant response rating, Pigweed: 0 = no effect, 100 = complete control, preemergence; for Plant response rating, Pigweed / Pigweed plant response rating: visual rating; for Pigweed plant response rating: postemergence, scale 0 (no effect) to 100 (complete control)
Summary of the method: as §1

rice [5] = assay: Test B pre-/postemergence herbicide test; type: in vivo, Oryza sativa; settings: 0 = no effect, 100 = complete control, preemergence; for Rice plant response rating (0 to 100 scale): 125 g ai/ha; for Plant response rating, Rice: 500 g ai/ha, visual rating
Summary of the method: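 Evaluation is visual, comparing treated with control plants on a scale where 0 means no effect and 100 means full control. Treatments were preemergence, or postemergence on seedlings 2–18 cm tall, and held 13–15 days in the greenhouse.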

cocklebur = assay: Test B pre-/postemergence herbicide test; type: in vivo, Xanthium strumarium; settings: for Cocklebur plant response rating (0 to 100 scale) / Plant response rating, Cocklebur: 0 = no effect, 100 = complete control, preemergence; for Plant response rating, Cocklebur / Cocklebur plant response rating: visual rating; for Cocklebur plant response rating: postemergence, scale 0 (no effect) to 100 (complete control)
Summary of the method: as §2

wild oat = assay: Test B postemergence herbicide test; type: in vivo, Avena fatua; settings: postemergence, visual rating, scale 0 (no effect) to 100 (complete control)
Summary of the method: as §4

CCNC(=O)c1ccnc(NC(=O)c2nn(C(C)(C)C)cc2CC)c1 [Compound 233]
Corn plant response rating (0 to 100 scale) (corn; 125 g ai/ha): 0 | Plant response rating, Corn (corn; 500 g ai/ha): 0 | Corn plant response rating (corn; 125 g ai/ha): 10 | Corn plant response rating (corn; 500 g ai/ha): 30 | Barnyardgrass plant response rating (0 to 100 scale) (barnyardgrass [1]; 125 g ai/ha): 10 | Plant response rating, Barnyardgrass (barnyardgrass [1]; 500 g ai/ha): 10 | Crabgrass, Large plant response rating (0 to 100 scale) (large crabgrass; 125 g ai/ha): 20 | Plant response rating, Crabgrass, Large (large crabgrass; 500 g ai/ha): 90 | Crabgrass, Large plant response rating (large crabgrass; 125 g ai/ha): 10 | Crabgrass, Large plant response rating (large crabgrass; 500 g ai/ha): 10 | Blackgrass plant response rating (blackgrass; 125 g ai/ha): 0 | Blackgrass plant response rating (blackgrass; 500 g ai/ha): 10 | Foxtail, Giant plant response rating (0 to 100 scale) (giant foxtail; 125 g ai/ha): 0 | Plant response rating, Foxtail, Giant (giant foxtail; 500 g ai/ha): 0 | Foxtail, Giant plant response rating (giant foxtail; 125 g ai/ha): 0 | Foxtail, Giant plant response rating (giant foxtail; 500 g ai/ha): 30 | Rice plant response rating (rice [2]): 30 | Surinam Grass plant response rating (0 to 100 scale) (Surinam grass; 125 g ai/ha): 0 | Plant response rating, Surinam Grass (Surinam grass; 500 g ai/ha): 20 | Surinam Grass plant response rating (Surinam grass; 125 g ai/ha): 10 | Surinam Grass plant response rating (Surinam grass; 500 g ai/ha): 20 | Barnyardgrass plant response rating (barnyardgrass [3]): 0 | Ducksalad plant response rating (ducksalad): 50 | Wheat plant response rating (wheat; 125 g ai/ha): 0 | Wheat plant response rating (wheat; 500 g ai/ha): 10 | Velvetleaf plant response rating (0 to 100 scale) (velvetleaf; 125 g ai/ha): 10 | Plant response rating, Velvetleaf (velvetleaf; 500 g ai/ha): 10 | Velvetleaf plant response rating (velvetleaf; 125 g ai/ha): 30 | Velvetleaf plant response rating (velvetleaf; 500 g ai/ha): 50 | Morningglory plant response rating (0 to 100 scale) (morningglory; 125 g ai/ha): 0 | Plant response rating, Morningglory (morningglory; 500 g ai/ha): 0 | Morningglory plant response rating (morningglory; 125 g ai/ha): 50 | Morningglory plant response rating (morningglory; 500 g ai/ha): 80 | Sedge, Umbrella plant response rating [4]: 80 | Lambsquarters plant response rating (0 to 100 scale) (lambsquarters; 125 g ai/ha): 0 | Plant response rating, Lambsquarters (lambsquarters; 500 g ai/ha): 30 | Lambsquarters plant response rating (lambsquarters; 125 g ai/ha): 50 | Lambsquarters plant response rating (lambsquarters; 500 g ai/ha): 70 | Pigweed plant response rating (0 to 100 scale) (pigweed; 125 g ai/ha): 0 | Plant response rating, Pigweed (pigweed; 500 g ai/ha): 60 | Pigweed plant response rating (pigweed; 125 g ai/ha): 60 | Pigweed plant response rating (pigweed; 500 g ai/ha): 70 | Rice plant response rating (0 to 100 scale) (rice [5]): 0 | Plant response rating, Rice (rice [5]): 0 | Cocklebur plant response rating (0 to 100 scale) (cocklebur; 125 g ai/ha): 0 | Plant response rating, Cocklebur (cocklebur; 500 g ai/ha): 0 | Cocklebur plant response rating (cocklebur; 125 g ai/ha): 20 | Cocklebur plant response rating (cocklebur; 500 g ai/ha): 20 | Oat, Wild plant response rating (wild oat; 125 g ai/ha): 0 | Oat, Wild plant response rating (wild oat; 500 g ai/ha): 20

CCOC(=O)c1ccnc(NC(=O)c2cn(C(C)(C)C)nc2CC)c1 [Compound 238]
Corn plant response rating (0 to 100 scale) (corn; 125 g ai/ha): 0 | Plant response rating, Corn (corn; 500 g ai/ha): 0 | Corn plant response rating (corn; 125 g ai/ha): 0 | Corn plant response rating (corn; 500 g ai/ha): 0 | Barnyardgrass plant response rating (0 to 100 scale) (barnyardgrass [1]; 125 g ai/ha): 0 | Plant response rating, Barnyardgrass (barnyardgrass [1]; 500 g ai/ha): 0 | Barnyardgrass plant response rating (barnyardgrass [1]; 125 g ai/ha): 0 | Barnyardgrass plant response rating (barnyardgrass [1]; 500 g ai/ha): 0 | Crabgrass, Large plant response rating (0 to 100 scale) (large crabgrass; 125 g ai/ha): 0 | Plant response rating, Crabgrass, Large (large crabgrass; 500 g ai/ha): 0 | Crabgrass, Large plant response rating (large crabgrass; 125 g ai/ha): 0 | Crabgrass, Large plant response rating (large crabgrass; 500 g ai/ha): 0 | Blackgrass plant response rating (blackgrass; 125 g ai/ha): 0 | Blackgrass plant response rating (blackgrass; 500 g ai/ha): 10 | Foxtail, Giant plant response rating (0 to 100 scale) (giant foxtail; 125 g ai/ha): 0 | Plant response rating, Foxtail, Giant (giant foxtail; 500 g ai/ha): 0 | Foxtail, Giant plant response rating (giant foxtail; 125 g ai/ha): 0 | Foxtail, Giant plant response rating (giant foxtail; 500 g ai/ha): 0 | Rice plant response rating (rice [2]): 30 | Surinam Grass plant response rating (0 to 100 scale) (Surinam grass; 125 g ai/ha): 0 | Plant response rating, Surinam Grass (Surinam grass; 500 g ai/ha): 0 | Surinam Grass plant response rating (Surinam grass; 125 g ai/ha): 0 | Surinam Grass plant response rating (Surinam grass; 500 g ai/ha): 0 | Barnyardgrass plant response rating (barnyardgrass [3]): 10 | Ducksalad plant response rating (ducksalad): 0 | Wheat plant response rating (wheat; 125 g ai/ha): 0 | Wheat plant response rating (wheat; 500 g ai/ha): 20 | Velvetleaf plant response rating (0 to 100 scale) (velvetleaf; 125 g ai/ha): 0 | Plant response rating, Velvetleaf (velvetleaf; 500 g ai/ha): 0 | Velvetleaf plant response rating (velvetleaf; 125 g ai/ha): 0 | Velvetleaf plant response rating (velvetleaf; 500 g ai/ha): 10 | Morningglory plant response rating (0 to 100 scale) (morningglory; 125 g ai/ha): 0 | Plant response rating, Morningglory (morningglory; 500 g ai/ha): 0 | Morningglory plant response rating (morningglory; 125 g ai/ha): 0 | Morningglory plant response rating (morningglory; 500 g ai/ha): 0 | Sedge, Umbrella plant response rating [4]: 80 | Lambsquarters plant response rating (0 to 100 scale) (lambsquarters; 125 g ai/ha): 0 | Plant response rating, Lambsquarters (lambsquarters; 500 g ai/ha): 0 | Lambsquarters plant response rating (lambsquarters; 125 g ai/ha): 0 | Lambsquarters plant response rating (lambsquarters; 500 g ai/ha): 0 | Pigweed plant response rating (0 to 100 scale) (pigweed; 125 g ai/ha): 0 | Plant response rating, Pigweed (pigweed; 500 g ai/ha): 0 | Pigweed plant response rating (pigweed; 125 g ai/ha): 0 | Pigweed plant response rating (pigweed; 500 g ai/ha): 0 | Rice plant response rating (0 to 100 scale) (rice [5]): 0 | Plant response rating, Rice (rice [5]): 0 | Cocklebur plant response rating (0 to 100 scale) (cocklebur; 125 g ai/ha): 0 | Plant response rating, Cocklebur (cocklebur; 500 g ai/ha): 0 | Cocklebur plant response rating (cocklebur; 125 g ai/ha): 0 | Cocklebur plant response rating (cocklebur; 500 g ai/ha): 20 | Oat, Wild plant response rating (wild oat; 125 g ai/ha): 0 | Oat, Wild plant response rating (wild oat; 500 g ai/ha): 10
